Test results as given in publication PMC5034043 (The Journal of Biological Chemistry, 2016).
pEC50, pKd: −log10 of the molar value. Read-outs that look alike come from different tables or passages of the source.

Columns and labels:
[1] = buffer
α1β2γ2L GABAA receptors = molecular target: T1, α1β2γ2L GABAA receptors (Homo sapiens, UniProt P14867+P47870); assay: cell-based
T1 construct: expressed in transfected cells; host or cells: Xenopus laevis oocytes
Method: GABAA receptor expression in X. laevis oocytes was completed as described previously ([40]). cDNAs for GABAA receptor α1, β2, and γ2L subunits were generously provided by Dr. Robert Pearce (University of Wisconsin). All animal care and experimental procedures involving X. laevis frogs were carried out according to a protocol approved by the IACUC of Thomas Jefferson University. GABAA receptor currents expressed in X. laevis oocytes were recorded as reported previously ([40]). Data acquisition and initial analysis were performed using pClamp 9.2/10.3 (Molecular Devices, Sunnyvale, CA). Macroscopic currents were low-pass filtered at 1 kHz and digitized at 2 kHz. Data were fit to a sigmoidal dose-response curve with variable Hill slope.

X. laevis tadpoles [2] = assay: In vivo photolabeling in tadpoles (recovery after UV irradiation); parameters: species or system Xenopus laevis; conditions: 12 μM for 30 min, then 10 min low intensity UV irradiation
Method: Tadpoles were then exposed to 10 min of low intensity UV irradiation or were maintained as a 10-min non-UV irradiation control.
(§1) Behavioral activity was initially determined in albino X. laevis tadpoles (stages 45–47) as described previously ([29], [33]). All animal care and experimental procedures involving X. laevis tadpoles were carried out according to a protocol approved by the IACUC of the University of Pennsylvania.

X. laevis tadpoles [3] = assay: animal or person; type: in vivo; conditions: for pEC50: Xenopus laevis, read-out: EC50 (95% CI); for observable toxicity in tadpoles / pharmacological end point in tadpoles: in vivo
Method: as §1

horse spleen apoferritin [4] = molecular target: T2, horse spleen apoferritin (Equus caballus, UniProt P02791); assay: 1-AMA displacement fluorescence assay; type: binding
T2 construct: soluble protein model horse spleen apoferritin; from tissue; host or cells: horse spleen
T2 sequence (P02791 2-175 limits assumed): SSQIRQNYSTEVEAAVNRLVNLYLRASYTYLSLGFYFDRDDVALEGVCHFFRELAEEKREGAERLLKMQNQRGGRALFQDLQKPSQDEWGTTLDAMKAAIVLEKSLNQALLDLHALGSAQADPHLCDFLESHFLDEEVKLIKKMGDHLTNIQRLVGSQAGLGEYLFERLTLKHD
Method: 1-AMA fluorescence inhibition has been reported as a reliable measurement of anesthetic occupation of the horse spleen apoferritin anesthetic site ([64]). 1-AMA displacement studies were conducted as described previously ([29]). The fluorescence intensity versus concentration data were fitted to variable slope Hill models to obtain the IC50 and Hill slope. The KD value was calculated using the Cheng-Prusoff equation to correct for the presence of the 1-AMA competitors.

[5] = Physicochemical properties (density)
horse spleen apoferritin [6] = molecular target: T2, horse spleen apoferritin; assay: Isothermal titration calorimetry binding to apoferritin; conditions: one-site model, read-out: KD (95% CI), ITC
Method: Isothermal titration calorimetry isotherms for binding to soluble protein model horse spleen apoferritin were conducted as reported previously ([31]) and were resolved using a VP-isothermal titration calorimetry microcalorimeter (MicroCal, Inc., Northampton, MA). Origin 5.0 software was used to best-fit thermodynamic parameters to the heat profiles.

[7] = system: alkylphenol-binding proteins within synaptosomes; assay: Fluorescent profiling: protection from AziPm-click (1) photolabeling of synaptosomes; parameters: species or system mouse; conditions: propofol 75–375 μM; ketamine 150–450 μM; triplicate
Method: (§2) Synaptosomes were resuspended to 1 mg of protein/ml in HEPES buffer medium (in mM: 140 NaCl, 5 KCl, 5 NaHCO3, 1.2 NaH2PO4, 1 MgCl2, 10 glucose, and 10 HEPES (pH 7.4)). […] The samples were allowed to equilibrate for 5 min before being transferred to a parafilm-sealed 1-mm path length quartz cuvette. The sample was then irradiated for 20 min at a peak bandwidth of 350 nm (Rayonet RPR-3500 lamp) ∼6 cm from the light source. Non-irradiated samples were left in the dark at ambient temperature (22–25 °C) for 20 min. All remaining procedures were conducted with restricted light exposure.

GABAA receptor subunits = assay: Western blotting of streptavidin-captured GABAA receptor subunits with ligand protection; type: binding, mouse; conditions: AziPm-click (1) 10 μM, protecting ligand 100 μM, UV irradiation; n = 4
Method: as §2
To 750 μg of photolabeled or control synaptosome samples, 40 μl of 10% SDS and 2 μl of 5 mM DTT in water were added. Samples were then vortexed, heated for 10 min at 65 °C, and then briefly cooled. Final concentrations of 150 μM azide-biotin (Click Chemistry Tools), 2 mM tris(3-hydroxypropyltriazolylmethyl)amine (Sigma), 1 mM ascorbic acid (Sigma), and 1 mM CuSO4·5H2O (Sigma) were added to each sample and vortexed vigorously. The samples were left in the dark at ambient temperature (22–25 °C) for 1 h with mild agitation. Directly to each sample 4× volume chilled methanol, 1.5× chilled chloroform, and 3× chilled double distilled H2O were added. Samples were vortexed vigorously and centrifuged at 1,400 × g for 30 min at 4 °C. […]

T1 sequence (P14867 28-456): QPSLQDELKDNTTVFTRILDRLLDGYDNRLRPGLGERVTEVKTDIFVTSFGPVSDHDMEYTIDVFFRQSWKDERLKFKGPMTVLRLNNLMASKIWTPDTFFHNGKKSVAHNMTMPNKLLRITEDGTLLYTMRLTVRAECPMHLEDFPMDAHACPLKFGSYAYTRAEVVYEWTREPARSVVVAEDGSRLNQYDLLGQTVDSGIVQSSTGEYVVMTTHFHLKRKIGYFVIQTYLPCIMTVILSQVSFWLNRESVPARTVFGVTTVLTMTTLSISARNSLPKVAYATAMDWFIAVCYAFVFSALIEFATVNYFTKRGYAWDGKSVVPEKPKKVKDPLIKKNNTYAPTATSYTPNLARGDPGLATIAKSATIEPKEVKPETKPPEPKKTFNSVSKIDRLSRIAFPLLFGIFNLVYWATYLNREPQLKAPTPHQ
T1 sequence (P47870 25-512 limits assumed): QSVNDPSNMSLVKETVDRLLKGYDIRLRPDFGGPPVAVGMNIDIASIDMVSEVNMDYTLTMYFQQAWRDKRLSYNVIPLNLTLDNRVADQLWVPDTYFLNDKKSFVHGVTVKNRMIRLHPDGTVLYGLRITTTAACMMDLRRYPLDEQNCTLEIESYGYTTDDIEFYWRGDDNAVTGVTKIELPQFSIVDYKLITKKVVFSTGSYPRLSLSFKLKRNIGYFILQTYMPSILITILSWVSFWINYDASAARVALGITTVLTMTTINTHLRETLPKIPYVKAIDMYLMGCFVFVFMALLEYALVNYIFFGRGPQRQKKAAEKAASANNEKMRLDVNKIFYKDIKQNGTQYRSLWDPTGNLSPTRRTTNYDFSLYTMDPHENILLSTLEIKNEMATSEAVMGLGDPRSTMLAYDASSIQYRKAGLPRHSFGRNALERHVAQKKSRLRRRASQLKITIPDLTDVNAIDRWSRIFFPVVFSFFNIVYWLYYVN
T1 sequence (P18507 40-475 partner): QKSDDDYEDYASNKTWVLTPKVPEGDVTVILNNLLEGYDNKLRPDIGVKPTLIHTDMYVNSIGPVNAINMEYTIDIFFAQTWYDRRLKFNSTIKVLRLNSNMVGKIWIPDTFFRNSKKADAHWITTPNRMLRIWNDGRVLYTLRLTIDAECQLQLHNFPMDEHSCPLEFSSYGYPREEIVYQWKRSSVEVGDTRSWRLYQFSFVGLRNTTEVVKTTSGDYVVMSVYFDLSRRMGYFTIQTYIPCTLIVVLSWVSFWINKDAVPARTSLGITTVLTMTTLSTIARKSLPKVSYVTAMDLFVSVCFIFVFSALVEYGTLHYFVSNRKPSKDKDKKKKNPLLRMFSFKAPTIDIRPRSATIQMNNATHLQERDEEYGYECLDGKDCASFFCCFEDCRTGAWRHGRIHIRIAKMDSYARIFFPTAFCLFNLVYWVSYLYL

SMILES	half-life (t½) of time-dependent photoreactivity [1] [min]	pEC50 (α1β2γ2L GABAA receptors; read-out: EC50 for positive modulation)	immobility after drug washout (X. laevis tadpoles [2])	pEC50 (X. laevis tadpoles [3])	observable toxicity in tadpoles (X. laevis tadpoles [3])	pharmacological end point in tadpoles (X. laevis tadpoles [3])	Hill slope (mean ± S.E.), 1-AMA displacement (horse spleen apoferritin [4])	pKd (horse spleen apoferritin [4]; fluorescence data derived from the Cheng-Prusoff equation, read-out: KD (95% CI), 1-AMA displacement)	Density [5] [g/mL]	pKd (horse spleen apoferritin [6])	fluorescent labeling of synaptosomal proteins by AziPm-click (1) in presence of protecting ligand [7]	protection of GABAA receptor α and β subunits from AziPm-click (1) capture (GABAA receptor subunits)	pEC50 (α1β2γ2L GABAA receptors)	pKd (horse spleen apoferritin [4])
C#CCOCc1ccc(C2(C(F)(F)F)N=N2)cc1O [AziPm-click (1), 2-((prop-2-yn-1-yloxy)methyl)-5-(3-(trifluoromethyl)-3H-diazirin-3-yl)phenol]	25	4.31	prolonged immobility after drug washout	5.21	no observable toxicity	reversible hypnosis	−0.97 ± 0.39	5.40	1.19	4.66	–	–	–	–
CC(C)c1cccc(C(C)C)c1O [propofol, 2,6-diisopropylphenol, reference compound]	–	–	–	6.05	no observable toxicity	reversible hypnosis	−1.1 ± 0.33	–	0.96	5.05	decreased	significant decreases in capture efficiency	5.00	5.62
